From patent publication US6458962B1, “Sultams: catalyst systems for asymmetric reduction of a C=N intermediate biological compositions and methods for making the sultams” (The University of Tennesseee Research Corporation, priority 1999, dated 2002)

Tests used:
HIV-1 = experiment: Anti-HIV-1 activity, National Cancer Institute protocol (Weislow et al.); type: cell-based; conditions: for EC50: Human immunodeficiency virus 1, read-out: ECSO; for TLSO: ratio IC50/EC50, NCI protocol
Description: (§1) The sultams of the invention were tested in accordance with the National Cancer Institute Protocol, Weislow, O. W., et al. (1989) J. Natl. Cancer Inst. 81:577-586, which is incorporated herein by reference. The protocol is also described in U.S. Pat. No. 5,843,990.
The anti-HIV activity of compounds of the invention illustrated by the formula V shown above, is reported below.
Table III illustrates anti-HIV-1 activities of compounds of the invention, the substituents (shown in formula V).

[1] = IC50 in the National Cancer Institute anti-HIV protocol (Weislow et al.), used with EC50 for the TI50; type: cell-based; conditions: NCI protocol; read-out: ICSO
Description: as §1

Compound | EC50 (HIV-1) [nM] | TLSO (HIV-1) | IC50 [1] [nM] | melting point [°C]
Cc1cccc(C2c3ccccc3S(=O)(=O)N2C)c1 (single isomer, unassigned; (+)) [Compound 7, (+)-2-Methyl-3-(3-methylphenyl)-2,3-dihydrobenzo[d] isothiazole 1,1-Dioxide] | 37 | >54 | > 2000 | 154
CN1C(c2cccc(F)c2)c2ccccc2S1(=O)=O (single isomer, unassigned; (+)) [Compound 13, (+)-3-(3-Fluorophenyl)-2-methyl-2,3-dihydrobenzo[d]isothiazole 1,1-Dioxide] | 179 | 538 | 147000 | 147
Cc1ccccc1C1c2ccccc2S(=O)(=O)N1C (single isomer, unassigned; (+)) [Compound 18, (+)-2-Methyl-3-(2-methylphenyl)-2,3-dihydrobenzo[d]isothiazole 1,1-Dioxide] | 4680 | 26.3 | 123000 | 152
CN1[C@@H](c2ccccc2)c2ccccc2S1(=O)=O [Compound 5, (+)-(S)-2-Methyl-3-phenyl-2,3-dihydrobenzo[d]isothiazole 1,1-Dioxide] | 471 | >674 | > 316000 | 156 to 157
CN1[C@@H](c2cccc(Br)c2)c2ccccc2S1(=O)=O [Compound 9, (+)-(S)-3-(3-Bromophenyl)-2-methyl-2,3-dihydrobenzo[d]isothiazole 1,1-Dioxide] | 74 | 136.5 | 101000 | 157
CN1[C@@H](c2cccc(Cl)c2)c2ccccc2S1(=O)=O [Compound 11, (+)-(S)-3-(3-Chlorophenyl)-2-methyl-2,3-dihydrobenzo[d]isothiazole 1,1-Dioxide] | 86 | >31 | > 2000 | 164
CN1[C@@H](c2cccc(I)c2)c2ccccc2S1(=O)=O [Compound 15, (+)-(S)-2-Methyl-3-(3-iodophenyl)-2,3-dihydrobenzo[d]isothiazole 1,1-Dioxide] | 76 | 817 | 62400 | 156
